Source: ChEMBL document CHEMBL1145151, “2-Arylpropionic CXC chemokine receptor 1 (CXCR1) ligands as novel noncompetitive CXCL8 inhibitors” (J Med Chem, 2005)
Calls of active or inactive are those of the source. No cut-off for these calls is given here.

How the values were obtained:
[1] = biological target: T1, Interleukin-8 receptors, CXCR1/CXCR2 (Homo sapiens) (UniProt P25025+P25024); test: Inhibition of CXCL8-induced chemotaxis of human polymorphonuclear cells at 10e-8 M: not active; type: functional
[2] = biological target: T1, Interleukin-8 receptors, CXCR1/CXCR2 (Homo sapiens); test: Inhibition of interleukin-8 induced chemotaxis of human polymorphonuclear cells at 10 nM
[3] = biological target: T1, Interleukin-8 receptors, CXCR1/CXCR2 (Homo sapiens); test: Inhibition of CXCL8-induced chemotaxis of human polymorphonuclear cells at 10e-6 M: not active; type: functional
[4] = biological target: T2, Interleukin-8 receptors, CXCR1/CXCR2 (Homo sapiens, UniProt P25025+P25024); test: Inhibition of CXCL8-induced chemotaxis in human polymorphonuclear cells; type: functional
T2 sequence (P25025 whole entry): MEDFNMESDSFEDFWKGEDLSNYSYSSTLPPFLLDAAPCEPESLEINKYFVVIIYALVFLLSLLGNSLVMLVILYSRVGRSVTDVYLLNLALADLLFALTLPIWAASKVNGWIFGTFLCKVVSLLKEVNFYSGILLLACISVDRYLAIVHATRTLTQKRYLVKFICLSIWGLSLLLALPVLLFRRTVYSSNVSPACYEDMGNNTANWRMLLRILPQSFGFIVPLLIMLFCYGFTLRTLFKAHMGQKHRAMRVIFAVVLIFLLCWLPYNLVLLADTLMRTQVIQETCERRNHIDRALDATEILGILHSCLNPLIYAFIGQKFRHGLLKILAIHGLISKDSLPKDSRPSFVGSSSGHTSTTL
T2 sequence (P25024 whole entry): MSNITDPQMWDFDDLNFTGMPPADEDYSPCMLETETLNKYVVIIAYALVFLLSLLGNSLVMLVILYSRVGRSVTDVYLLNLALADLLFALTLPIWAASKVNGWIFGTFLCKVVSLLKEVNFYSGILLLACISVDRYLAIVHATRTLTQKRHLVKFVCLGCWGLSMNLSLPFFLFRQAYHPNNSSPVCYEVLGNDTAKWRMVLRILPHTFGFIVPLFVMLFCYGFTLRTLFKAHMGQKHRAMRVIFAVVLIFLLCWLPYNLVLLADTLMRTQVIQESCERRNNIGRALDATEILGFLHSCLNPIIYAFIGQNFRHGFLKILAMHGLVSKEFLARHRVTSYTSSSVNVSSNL

inhibition [1]	SMILES	also measured
inactive	C/C=C/c1cccc(C(C)C(=O)O)c1 (centres undefined)	–
inactive	CC(C)Cc1ccc([C@@H](C)C(=O)NS(=O)(=O)CCCN2C(=O)c3ccccc3C2=O)cc1	–
–	CCS(=O)(=O)NC(=O)[C@H](C)c1ccc(CC(C)C)cc1	inhibition [2]: 40%
inactive	CC(C)Cc1ccc([C@@H](C)C(=O)NCCCC(=O)O)cc1	–
–	CC(C)c1ccc(C(C)C(=O)O)cc1 (centres undefined)	inhibition [2]: 32%
inactive	CC(C)Cc1ccc([C@@H](C)C(=O)NS(=O)(=O)Cc2cccnc2)cc1	–
–	CCNC(=O)[C@H](C)c1ccc(CC(C)C)cc1	inhibition [2]: 26%
inactive	COC(=O)CNC(=O)[C@H](C)c1ccc(CC(C)C)cc1	–
inactive	CC(C(=O)O)c1ccc(-c2ccccc2)cc1 (centres undefined)	–
inactive	CC(C(=O)O)c1ccc(C(C)(C)C)cc1 (centres undefined)	–
–	CCC(C)c1cccc(C(C)C(=O)O)c1 (centres undefined)	inhibition [2]: 50%
inactive	CC(C)Cc1ccc([C@@H](C)C(=O)NCCCCCO)cc1	–
inactive	CC(C)Cc1ccc([C@@H](C)C(=O)NS(=O)(=O)c2ccccc2)cc1	–
inactive	CC(C)Cc1ccc([C@@H](C)C(=O)NS(=O)(=O)Cc2ccc(Cl)cc2)cc1	–
inactive	CC(=O)c1cccc(C(C)C(=O)O)c1 (centres undefined)	–
inactive	CC(C(=O)O)c1cccc(C(=O)O)c1 (centres undefined)	–
inactive	CC(C)Cc1ccc([C@@H](C)C(=O)NCCC(=O)O)cc1	–
–	CC(C)Oc1ccc(C(C)C(=O)O)cc1 (centres undefined)	inhibition [2]: 38%
–	CNC(=O)[C@H](C)c1ccc(CC(C)C)cc1	inhibition [2]: 40%
inactive	CC(C)Cc1ccc([C@@H](C)C(=O)NC2CCN(C)C2)cc1 (some centres undefined)	–
inactive	CC(C)Cc1ccc([C@@H](C)C(=O)NC(C)C(=O)O)cc1 (single isomer, unassigned)	–
inactive	CC(C(=O)O)c1ccc(CC2CCCCC2)cc1 (centres undefined)	–

inhibition [1]	SMILES	also measured
inactive	CC(C)Cc1ccc([C@@H](C)C(=O)NCCCN)cc1	–
inactive	CC(C)Cc1ccc([C@@H](C)C(=O)NCCC[N+](C)(C)C)cc1	–
–	CC(C(=O)O)c1cccc(Cc2ccccc2)c1 (centres undefined)	inhibition [2]: 30%
inactive	CC(C)Cc1ccc([C@@H](C)C(=O)N(C)C)cc1	–
inactive	COC(=O)[C@@H](C)NC(=O)[C@H](C)c1ccc(CC(C)C)cc1	–
–	CC(C)Cc1ccc([C@@H](C)C(=O)Nc2ccccc2)cc1	inhibition [2]: 30%
inactive	CCCCc1cccc(C(C)C(=O)O)c1 (centres undefined)	–
–	C[C@H](C(=O)NS(C)(=O)=O)c1ccc(-c2ccccc2)c(F)c1	inhibition [2]: 19%
inactive	CC(C)Cc1cccc(C(C)C(=O)O)c1 (centres undefined)	–
inactive	COC(=O)C(C)c1ccc(CC(C)C)cc1 (centres undefined)	–
–	CC(C(=O)NS(C)(=O)=O)c1ccc2c(c1)[nH]c1ccc(Cl)cc12 (centres undefined)	inhibition [3]: inactive
–	CONC(=O)[C@H](C)c1ccc(CC(C)C)cc1	IC50 [4]: 1.8 nM
inactive	CC(C)Cc1ccc([C@@H](C)C(=O)NC2CCOC2)cc1 (some centres undefined)	–
–	C[C@@H](C(=O)NS(C)(=O)=O)c1ccc(-c2ccccc2)c(F)c1	inhibition [2]: 30%
inactive	CC(C)Cc1ccc([C@@H](C)C(=O)NC2CCOCC2)cc1	–
inactive	CC(C(=O)O)c1ccc(-c2cccs2)cc1 (centres undefined)	–
inactive	CC(C(=O)O)c1ccc(Cc2ccccc2)cc1 (centres undefined)	–
inactive	CC(C(=O)O)c1ccc(O)cc1 (centres undefined)	–
inactive	CC(C)Cc1ccc([C@@H](C)C(=O)N2CCCCC2)cc1	–
inactive	CC(C)Cc1ccc([C@@H](C)C(=O)NS(=O)(=O)C(F)(F)F)cc1	–
inactive	CC(C)Cc1ccc([C@@H](C)C(=O)NS(=O)(=O)CCCN)cc1	–
inactive	CC(C)Cc1ccc([C@@H](C)C(=O)N[C@H](CS)C(=O)O)cc1	–
